How the values were obtained:
[1] = system: GM3 expression on the cell surface, B16 mouse melanoma cells; test: cell based phenotypic assay, cell surface GM3 by antibody mediated immunofluorescence, B16 (GM3 B16 IC50); conditions: Mus musculus, B16 mouse melanoma cells; 50% inhibition of GM3 expression on the cell surface; read-out: GM3 B16 IC50
How it was run: (§1)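 Both lines undergo the phenotypic GM3 assay, and viability is recorded from that same cell-based run.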

[2] = biological target: T1, glucosylceramide synthase (Homo sapiens, UniProt Q16739); test: microsomal assay measuring conversion of ceramide to glucosylceramide by HPLC (GCS IC50); assay type: biochemical; conditions: concentration causing 50% inhibition of glucosylceramide synthase activity
T1 construct: Microsomes were isolated from A375 human melanoma cells; endogenous in cells; host or cells: A375 human melanoma cells (microsomal fraction, 100,000 g pellet)
T1 sequence (Q16739 1-394): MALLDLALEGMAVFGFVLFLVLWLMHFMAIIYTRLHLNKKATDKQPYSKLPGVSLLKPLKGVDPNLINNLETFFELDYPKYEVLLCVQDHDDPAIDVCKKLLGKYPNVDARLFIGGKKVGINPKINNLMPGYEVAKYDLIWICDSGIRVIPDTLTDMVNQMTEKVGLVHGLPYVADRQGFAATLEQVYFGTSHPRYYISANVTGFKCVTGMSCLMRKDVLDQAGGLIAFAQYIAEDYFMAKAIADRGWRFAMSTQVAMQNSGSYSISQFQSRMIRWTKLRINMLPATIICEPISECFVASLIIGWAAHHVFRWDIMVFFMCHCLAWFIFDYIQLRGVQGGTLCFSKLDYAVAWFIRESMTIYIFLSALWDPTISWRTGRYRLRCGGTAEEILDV
How it was run: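 Microsomal preparation assayed for glucosylceramide synthase by direct HPLC measurement of ceramide conversion to glucosylceramide. GCS IC50 is the compound concentration giving 50% inhibition of enzyme activity.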

[3] = system: GM3 expression on the cell surface, C32 human melanoma cells; test: cell based phenotypic assay, cell surface GM3 by antibody mediated immunofluorescence, C32 (GM3 C32 IC50); conditions: Homo sapiens, C32 human melanoma cells; 50% inhibition of GM3 expression on the cell surface; read-out: GM3 C32 IC50
How it was run: as §1

[4] = system: C32 human melanoma cells; test: cell viability in the C32 cell-based assay (Viability, C32 IC50); conditions: Homo sapiens, C32, C32 cells; concentration causing 50% cell death; values greater than 10 represent a lack of cell death; read-out: Viability, C32 IC50
How it was run: (§2)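 Two melanoma lines, mouse B16 and human C32, were treated and surface GM3 quantified by antibody immunofluorescence for IC50. A parallel viability readout gives the concentration killing 50% of cells, with values over 10 indicating no cell death.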

[5] = system: B16 mouse melanoma cells; test: cell viability in the B16 cell-based assay (Viability, B16 IC50); conditions: Mus musculus, B16, B16 cells; concentration causing 50% cell death; values greater than 10 represent a lack of cell death; read-out: Viability, B16 IC50
How it was run: as §2

| IC50 [1] [nM] | IC50 [2] [nM] | IC50 [3] [nM] | Compound | IC50 [4] [nM] | IC50 [5] [nM] |
| --- | --- | --- | --- | --- | --- |
| 109 | 8.23 | 1.17 | COCCOCc1ccc(-c2ccnc(N3CCC(F)(C(=O)NC4(C)CCN5CCC4CC5)CC3)n2)cc1 (stereo not shown) [Example 89, 4-Fluoro-1-(4-(4-((2-methoxyethoxy)methyl)phenyl)pyrimidin-2-yl)-N-(4-methyl-1-azabicyclo[3.2.2]nonan-4-yl)piperidine-4-carboxamide] | 316 | 9470 |
| 71.4 | 2.04 | 0.117 | COCCOc1ccc(-c2nc(N3CCC(F)(C(=O)NC4(C)CCN5CCC4CC5)CC3)ncc2F)cc1 (stereo not shown) [Example 91, 4-Fluoro-1-(5-fluoro-4-(4-(2-methoxyethoxy)phenyl)pyrimidin-2-yl)-N-(4-methyl-1-azabicyclo[3.2.2]nonan-4-yl)piperidine-4-carboxamide] | 100 | 2660 |
| 43.9 | 3.96 | 0.261 | COCCOc1ccc(-c2ccnc(N3CCC(F)(C(=O)NC4(C)CCN5CCC4CC5)CC3)n2)cc1 (stereo not shown) [Example 93, 4-Fluoro-1-(4-(4-(2-methoxyethoxy)phenyl)pyrimidin-2-yl)-N-(4-methyl-1-azabicyclo[3.2.2]nonan-4-yl)piperidine-4-carboxamide] | 316 | 3960 |
| 14.4 | 0.736 | 0.0964 | CC1(NC(=O)C2(F)CCN(c3nccc(-c4ccc(F)cc4)n3)CC2)CCN2CCC1CC2 (stereo not shown) [Example 94, 4-Fluoro-1-(4-(4-fluorophenyl)pyrimidin-2-yl)-N-(4-methyl-1-azabicyclo[3.2.2]nonan-4-yl)piperidine-4-carboxamide] | 46.4 | 2100 |
| 26.5 | 3.68 | 0.109 | COC1(C(=O)NC2(C)CCN3CCC2CC3)CCN(c2nccc(-c3ccc(F)cc3)n2)CC1 (stereo not shown) [Example 100, 1-(4-(4-Fluorophenyl)pyrimidin-2-yl)-4-methoxy-N-(4-methyl-1-azabicyclo[3.2.2]nonan-4-yl)piperidine-4-carboxamide] | 1000 | 1900 |
| 51.3 | 25.1 | 3 | COCCOc1cnc(N2CCC(C(=O)NC3(C)CCN4CCC3CC4)CC2)nc1-c1ccc(F)cc1 (stereo not shown) [Example 104, 1-(4-(4-Fluorophenyl)-5-(2-methoxyethoxy)pyrimidin-2-yl)-N-(4-methyl-1-azabicyclo[3.2.2]nonan-4-yl)piperidine-4-carboxamide] | 1000 | ≥ 10000 |
| 272 | 10.5 | 2 | COCCOc1cc(-c2ccc(F)cc2)nc(N2CCC(C(=O)NC3(C)CCN4CCC3CC4)CC2)n1 (stereo not shown) [Example 105, 1-(4-(4-Fluorophenyl)-6-(2-methoxyethoxy)pyrimidin-2-yl)-N-(4-methyl-1-azabicyclo[3.2.2]nonan-4-yl)piperidine-4-carboxamide] | 1000 | 3660 |
| 15.3 | 0.858 | 0.095 | CC1(NC(=O)C2CCN(c3cc(-c4ccc(F)cc4)ccn3)CC2)CCN2CCC1CC2 (stereo not shown) [Example 106, 1-(4-(4-Fluorophenyl)pyridin-2-yl)-N-(4-methyl-1-azabicyclo[3.2.2]nonan-4-yl)piperidine-4-carboxamide] | 9020 | 6970 |
| 299 | 4.76 | 0.935 | CC1(NC(=O)C2CCN(c3cncc(-c4ccc(F)cc4)c3)CC2)CCN2CCC1CC2 (stereo not shown) [Example 107, 1-(5-(4-Fluorophenyl)pyridin-3-yl)-N-(4-methyl-1-azabicyclo[3.2.2]nonan-4-yl)piperidine-4-carboxamide] | 78.5 | ≥ 10000 |
| 1080 | 80.8 | 54.1 | CC1(NC(=O)C2CCN(c3ccnc(-c4ccc(F)cc4)c3)CC2)CCN2CCC1CC2 (stereo not shown) [Example 108, 1-(2-(4-Fluorophenyl)pyridin-4-yl)-N-(4-methyl-1-azabicyclo[3.2.2]nonan-4-yl)piperidine-4-carboxamide] | 3160 | 5650 |

Further lines, the molecule ahead of its results:

| Compound | IC50 [1] [nM] | IC50 [2] [nM] | IC50 [3] [nM] | IC50 [4] [nM] | IC50 [5] [nM] |
| --- | --- | --- | --- | --- | --- |
| CC1(NC(=O)C2(F)CCN(c3nccc(-c4ccc(OCCF)cc4)n3)CC2)CCN2CCC1CC2 (stereo not shown) [Example 90, 4-Fluoro-1-(4-(4-(2-fluoroethoxy)phenyl)pyrimidin-2-yl)-N-(4-methyl-1-azabicyclo[3.2.2]nonan-4-yl)piperidine-4-carboxamide] | 13.4 | 2.26 | 0.0953 | 215 | 3060 |
| CC1(NC(=O)C2(F)CCN(c3nccc(-c4ccc(OCCF)cc4)n3)CC2)CN2CCC1CC2 (stereo not shown) [Example 92, 4-Fluoro-1-(4-(4-(2-fluoroethoxy)phenyl)pyrimidin-2-yl)-N-(3-methylquinuclidin-3-yl)piperidine-4-carboxamide] | 29 | 1.46 | 0.106 | 100 | 6830 |
| CC1(NC(=O)C2(F)CCN(c3nccc(-c4ccc(F)cc4)n3)CC2)CN2CCC1CC2 (stereo not shown) [Example 95, 4-Fluoro-1-(4-(4-fluorophenyl)pyrimidin-2-yl)-N-(3-methylquinuclidin-3-yl)piperidine-4-carboxamide] | 20 | 0.585 | 0.0836 | 31.6 | 4690 |
| COCc1ccc(-c2ccnc(N3CCC(C)(C(=O)NC4(C)CCN5CCC4CC5)CC3)n2)cc1 (stereo not shown) [Example 96, 1-(4-(4-(Methoxymethyl)phenyl)pyrimidin-2-yl)-4-methyl-N-(4-methyl-1-azabicyclo[3.2.2]nonan-4-yl)piperidine-4-carboxamide] | 145 | 7 | 0.804 | 1000 | 3390 |
| COCCOCc1ccc(-c2ccnc(N3CCC(C)(C(=O)NC4(C)CCN5CCC4CC5)CC3)n2)cc1 (stereo not shown) [Example 97, 1-(4-(4-((2-Methoxyethoxy)methyl)phenyl)pyrimidin-2-yl)-4-methyl-N-(4-methyl-1-azabicyclo[3.2.2]nonan-4-yl)piperidine-4-carboxamide] | 285 | 13.4 | 1.36 | 1000 | ≥ 10000 |
| COCCOCc1ccc(-c2ccnc(N3CCC(C)(C(=O)NC4(C)CN5CCC4CC5)CC3)n2)cc1 (stereo not shown) [Example 98, 1-(4-(4-((2-Methoxyethoxy)methyl)phenyl)pyrimidin-2-yl)-4-methyl-N-(3-methylquinuclidin-3-yl)piperidine-4-carboxamide] | 1910 | 76.9 | 8.13 | 1000 | 8190 |
| CC1(NC(=O)C2(O)CCN(c3nccc(-c4ccc(F)cc4)n3)CC2)CCN2CCC1CC2 (stereo not shown) [Example 99, 1-(4-(4-Fluorophenyl)pyrimidin-2-yl)-4-hydroxy-N-(4-methyl-1-azabicyclo[3.2.2]nonan-4-yl)piperidine-4-carboxamide] | 12 | 2.23 | 0.0552 | 46.4 | 3780 |
| COCCCOc1ccc(-c2ccnc(N3CCC(OC)(C(=O)NC4(C)CCN5CCC4CC5)CC3)n2)cc1 (stereo not shown) [Example 101, 4-Methoxy-1-(4-(4-(3-methoxypropoxy)phenyl)pyrimidin-2-yl)-N-(4-methyl-1-azabicyclo[3.2.2]nonan-4-yl)piperidine-4-carboxamide] | 78.5 | 3.38 | 0.436 | 1000 | 2030 |
| COC1(C(=O)NC2(C)CCN3CCC2CC3)CCN(c2ncc(F)c(-c3ccc(OCCF)cc3)n2)CC1 (stereo not shown) [Example 102, 1-(5-Fluoro-4-(4-(2-fluoroethoxy)phenyl)pyrimidin-2-yl)-4-methoxy-N-(4-methyl-1-azabicyclo[3.2.2]nonan-4-yl)piperidine-4-carboxamide] | 92.9 | 1.03 | 0.258 | 100 | 2850 |
| COC1(C(=O)NC2(C)CCN3CCC2CC3)CCN(c2nccc(-c3ccc(OCCF)cc3)n2)CC1 (stereo not shown) [Example 103, 1-(4-(4-(2-Fluoroethoxy)phenyl)pyrimidin-2-yl)-4-methoxy-N-(4-methyl-1-azabicyclo[3.2.2]nonan-4-yl)piperidine-4-carboxamide] | 73.8 | 3.65 | 0.29 | 316 | 3110 |

— patent publication US12060349B2, “Glucosylceramide synthase inhibitors” (Genzyme Corporation, priority 2012, dated 2024)
